According to patent US5110933A, “Salts of 3-azabicyclo[3.3.1]nonanes as antiarrhythmic agents, and precursors thereof” (Board of Regents of Oklahoma State University, priority 1990, dated 1992):

Legend:
[1] = tested on: Sustained ventricular tachycardia induced by electrical pacing of infarcted dog heart; experiment: Antiarrhythmic activity on sustained ventricular tachycardia induced by electrical pacing of infarcted dog heart; format: in vivo; conditions: for ability to reduce the rate of the induced VT or to eliminate the same: 3 mg/kg as well as 6 mg/kg
Text: To illustrate the useful biological properties of the compounds described in this invention, selected derivatives were screened for antiarrhythmic activity using dog models. The clinically used agent lidocaine and 7-benzyl-3-thia-7-azabicyclo[3.3.1]nonane hydroperchlorate (48) [U.S. Pat. No. 4,581,361] were employed as standards as basis for comparison. A small infarction was created in an area of the dog heart and thereafter electrical pacing was initiated to generate a sustained ventricular tachycardia (VT). This irregular beating pattern of the heart results in a reduction of the pumping capability of the heart in a manner now accepted as resembling symptoms observed in humans during a heart attack (see: Scherlag, B. J. et. al., Am. J. Cardiol. 1983, 51, 207; Bailey, B. R. et. al., J. Med. Chem. 1984, 27, 759; Thompson, M. D. et. al., J. Med. Chem. 1987, 30, 780; U.S. Pat. No. 4,581,361; and U.S. Pat. No. 4,778,892 for further details, said references incorporated herein for such purposes). The effects of the selected compounds in terms of ability to reduce the rate of the induced VT or to eliminate the same (abolish the VT completely or at least not allow it to be sustained) is then evaluated and compared to lidocaine or to 7-benzyl-3-thia-7-azabicyclo[3.3.1]nonane hydroperchlorate (48).

[2] = Tissue distribution of radioactivity after oral administration of (48)*; design: species or system rats; conditions: rat, in vivo
Text: In order to determine the potential viability of members of the above family to act as useful antiarrhythmic agents in vivo, a pharmacokinetic and metabolism study was undertaken using a representative example from the above compounds. The techniques employed in these preliminary studies are well documented, but a summary of pharmacokinetic procedures can be found in: J. D. Baggot, "Principals of Drug Disposition in Domestic Animals: The Basis of Veterinary Clinical Pharmacology", W. B. Saunders Company, Philadelphia, 1977. These studies were conducted using ^14 C-labelled (48)* [Prepared by the method of Zisman, Berlin, et al. J. Labelled Compounds and Radiopharmaceuticals, In Press (1989)] in Sprague-Dawley rats.
Tissue distribution of (48)* was studied by measuring the radioactivity in selected organs collected from rats sacrificed at several time intervals after oral administration. […] These observations correlate well with the high volume of distribution calculated from pharmacokinetic data.

[3] = design: species or system rats; conditions: rat, in vivo, po

COc1ccc(C(=O)N2CC3CC(C2)CN(C(C)C)C3)cc1OC.[O-][Cl+3]([O-])([O-])O [(3), 3-(3',4'-Dimethoxybenzoyl)-7-isopropyl-3,7-diazabicyclo[3.3.1]nonane Hydroperchlorate]
ability to reduce the rate of the induced VT or to eliminate the same [1]: extremely effective in eliminating the induced VT

c1ccc(CN2CC3CSCC(C3)C2)cc1 [(48)]
radioactivity in liver and kidney [2]: High levels of radioactivity
radioactivity in the heart [2]: Reasonably high concentrations of radioactivity
excretion in urine [3]: most of the dose was excreted in the form of metabolites

COC1(OC)C2CN(Cc3ccccc3)CC1CN(Cc1ccccc1)C2 [(12), 3,7-Dibenzyl-9,9-dimethoxy-3,7-diazabicyclo[3.3.1]nonane Hydroperchlorate]
Effect on SVT ([1]; 3mg/kg): Reduced
ability to reduce the rate of the induced VT or to eliminate the same [1]: reduced the rates of the induced VT but did not abolish them
Effect on SVT ([1]; 6mg/kg): Reduced

O=C1C2CC(CN(Cc3ccccc3)C2)CN1Cc1ccccc1 (stereo not drawn) [(17), 3,7-Dibenzyl-3,7-diazabicyclo[3.3.1]nonan-2-one]
Effect on SVT ([1]; 3mg/kg): Reduced
ability to reduce the rate of the induced VT or to eliminate the same [1]: reduced the rates of the induced VT but did not abolish them
Effect on SVT ([1]; 6mg/kg): Reduced

CC(C)N1CC2CSCC(C2)C1 [(8), 7-Isopropyl-3-thia-7-azabicyclo[3.3.1]nonane Hydroperchlorate]
Effect on SVT ([1]; 3mg/kg): No action
ability to reduce the rate of the induced VT or to eliminate the same [1]: exhibited little effect on the dog model
Effect on SVT ([1]; 6mg/kg): No action

COC1(OC)C2CSCC1CN(Cc1ccccc1)C2 [(11), 7-Benzyl-9,9-dimethoxy-3-thia-7-azabicyclo[3.3.1]-nonane Hydroperchlorate]
ability to reduce the rate of the induced VT or to eliminate the same [1]: extremely effective in eliminating the induced VT

Ethyl 3-Benzyl-9,9-(1,3-dithiolan-2-yl)-3-azabicyclo[3.3.1]nonane-7-(endo)-carboxylate Hydroperchlorate [(14)]
ability to reduce the rate of the induced VT or to eliminate the same [1]: extremely effective in eliminating the induced VT

[O-][S+]1CC2CC(CN(Cc3ccccc3)C2)C1 (stereo not drawn) [(10), 7-Benzyl-3-thia-7-azabicyclo[3.3.1]nonane 3-Oxide Hydroperchlorate]
Effect on SVT ([1]; 3mg/kg): Reduced rate of VT
ability to reduce the rate of the induced VT or to eliminate the same [1]: reduced the rates of the induced VT but did not abolish them
Effect on SVT ([1]; 6mg/kg): Reduced rate of VT

Ethyl 3-Benzyl-3-azabicyclo[3.3.1]nonane-7-(endo)-carboxylate Hydroperchlorate [(13)]
ability to reduce the rate of the induced VT or to eliminate the same [1]: extremely effective in eliminating the induced VT

CC(C)N1CC2CC(CN(Cc3ccccc3)C2)C1 [(5), 7-Benzyl-3-isopropyl-3,7-diazabicyclo[3.3.1]nonane Hydroperchlorate]
ability to reduce the rate of the induced VT or to eliminate the same [1]: extremely effective in eliminating the induced VT

O=C(c1ccccc1)N1CC2CSCC(C2)C1 [(15)]
Effect on SVT ([1]; 3mg/kg): Reduced
ability to reduce the rate of the induced VT or to eliminate the same [1]: reduced the rates of the induced VT but did not abolish them
Effect on SVT ([1]; 6mg/kg): Reduced

CC(C)N1CC2CC(CN(C(=O)c3ccccc3)C2)C1 [(1), 3-Benzoyl-7-isopropyl-3,7-diazabicyclo[3.3.1]nonane Hydroperchlorate]
ability to reduce the rate of the induced VT or to eliminate the same [1]: extremely effective in eliminating the induced VT
